Experimental data from patent US11433140B2, “Specific antibody drug conjugates (ADCs) having KSP inhibitors” (Bayer Pharma Aktiengesellschaft, priority 2016, dated 2022).
Where a name gives a salt, the structure may show the parent alone.

Assays:
NCI-H292 = assay: MTT assay, cytotoxic effect on NCI-H292; format: cell-based, human; details: Table 2, metabolites, MTT after 96 h
Experimental: NCI-H292: human mucoepidermoid lung carcinoma cells, ATCC-CRL-1848, standard medium: RPMI 1640 (Biochrom; #FG1215, stab. glutamine)+10% FCS (Sigma; #F2442), TWEAKR-positive; EGFR-positive,
(§1) The cells were cultivated by the standard method, with the growth media specified in section C-1. The test was carried out by detaching the cells with a solution of Accutase in PBS (from Biochrom AG #L2143), pelletizing, resuspending in culture medium, counting and sowing into a 96-well culture plate with white bottom (from Costar #3610) (NCI H292: 2500 cells/well; SK-HEP-1: 1000 cells/well; KPL-4: 1200 cells/well; in total volume 100 μl). The cells were then incubated in an incubator at 37° C. and 5% carbon dioxide. After 48 h, the medium was replaced. The antibody drug conjugates in 10 μl of culture medium in concentrations from 10^−5M to 10^−13M were then pipetted to the cells (in triplicate), and the assay was then incubated in an incubator at 37° C. and 5% carbon dioxide. The suspension cells were counted and sown into a 96-well culture plate with white bottom (from Costar #3610) (#3610) (MOLM-13: 2000 cells/well; NB4: 7000 cells/well; MV-4-11: 5000 cells/well in a total volume of 100 μl). After 6 hours of incubation at 37° C. and 5% carbon dioxide, the medium was changed and the antibody-drug conjugates or metabolites were added by pipette in 10 μl of culture medium in concentrations of 10^−5M to 10^−13M to the cells (triplicates) in 90 μl. The batch was incubated in an incubator at 37° C. and 5% carbon dioxide. After 96 h, the cell proliferation was detected using the MTT assay (ATCC, Manassas, Va., USA, catalogue No. 30-1010K). To this end, the MTT reagent was incubated with the cells for 4 h, followed by lysis of the cells overnight by addition of the detergent. The dye formed was detected at 570 nm (Infinite M1000 pro, Tecan). The measured data were used to calculate the IC50 of the growth inhibition using the DRC (dose response curve). The proliferation of cells which were not treated with test substance but were otherwise identically treated was defined as the 100% figure.

SKHep-1 = assay: MTT assay, cytotoxic effect on SK-HEP-1; format: cell-based, human; details: Table 2, metabolites, MTT after 96 h
Experimental: SK-HEP-1: human liver cell cancer line, ATCC No. HTB-52, standard medium: MEM with Earle's salts+Glutamax I (Invitrogen 41090)+10% heat inactivated FCS (from Gibco, No. 10500-064); TWEAKR-positive
as §1, with “The proliferation of cells which were not treated with test substance but were otherwise identically treated was defined as the 100% figure.” left out

Caco-2 cells = assay: Cell permeability, flux assay using Caco-2 cells; format: in vitro ADME; details: for Papp (B-A): Caco-2, basal to apical, 2 hours
Experimental: The cell permeability of a substance can be investigated by means of in vitro testing in a flux assay using Caco-2 cells [M. D. Troutman and D. R. Thakker, Pharm. […] For this purpose, the cells were cultured for 15-16 days on 24-well filter plates. For the determination of permeation, the respective test substance was applied in a HEPES buffer to the cells either apically (A) or basally (B) and incubated for 2 hours. After 0 hours and after 2 hours, samples were taken from the cis and trans compartments. The samples were separated by HPLC (Agilent 1200, Böblingen, Germany) using reverse phase columns. The HPLC system was coupled via a Turbo Ion Spray Interface to a Triple Quadropole mass spectrometer API 4000 (AB SCIEX Deutschland GmbH, Darmstadt, Germany).
Of critical importance for toxophores which are released intracellularly is the permeability from B to A [Papp (B-A)] and the ratio of Papp (B-A) to Papp (A-B) (efflux ratio): The lower this permeability, the slower the active and passive transport processes of the substance through the monolayer of Caco-2 cells. If the efflux ratio, moreover, gives no indications as to active transport, the substance, following intracellular release, can remain in the cell for longer. As a consequence, the time available for interaction with the biochemical target (here: kinesin spindle protein KSP/Eg5) also increases.

MOLM-13 = assay: MTT assay, cytotoxic effect on MOLM-13; format: cell-based, human; details: Table 2; metabolites; MTT after 96 h
Experimental: (§2) C-1a: Determination of the Cytotoxic Effect of the ADCs Directed Against CD123 and CXCR5
(§3) The analysis of the cytotoxic effect of the exemplary ADCs was carried out with various cell lines:
MOLM-13: human acute monocytic leukaemia cells (AML-M5a), DSMZ, No. ACC 554, standard medium: RPMI 1640 (from Gibco; #21875-059, stab. L-glutamine)+20% heat inactivated FCS (Gibco, No. 10500-064); CD123-positive.
(§4) The cells were cultivated by the standard method, with the growth media specified in section C-1. The test was carried out by detaching the cells with a solution of Accutase in PBS (from Biochrom AG #L2143), pelletizing, resuspending in culture medium, counting and sowing into a 96-well culture plate with white bottom (from Costar #3610) (NCI H292: 2500 cells/well; SK-HEP-1: 1000 cells/well; KPL-4: 1200 cells/well; in total volume 100 μl). […] The suspension cells were counted and sown into a 96-well culture plate with white bottom (from Costar #3610) (#3610) (MOLM-13: 2000 cells/well; NB4: 7000 cells/well; MV-4-11: 5000 cells/well in a total volume of 100 μl). […] After 96 h, the cell proliferation was detected using the MTT assay (ATCC, Manassas, Va., USA, catalogue No. 30-1010K). […] The dye formed was detected at 570 nm (Infinite M1000 pro, Tecan). The measured data were used to calculate the IC50 of the growth inhibition using the DRC (dose response curve). […]

KPL-4 = assay: MTT assay, cytotoxic effect on KPL-4; format: cell-based, human; details: Table 2; metabolites; MTT after 96 h
Experimental: KPL4: human breast cancer cell line, Bayer Pharma AG (identity checked and confirmed on 19 Jul. 2012 at DSMZ), standard medium: RPMI 1640 (from Gibco; #21875-059, stab. L-glutamine)+10% heat inactivated FCS (Gibco, No. 10500-064); HER2-positive.
The cells were cultivated by the standard method, with the growth media specified in section C-1. The test was carried out by detaching the cells with a solution of Accutase in PBS (from Biochrom AG #L2143), pelletizing, resuspending in culture medium, counting and sowing into a 96-well culture plate with white bottom (from Costar #3610) (NCI H292: 2500 cells/well; SK-HEP-1: 1000 cells/well; KPL-4: 1200 cells/well; in total volume 100 μl). The cells were then incubated in an incubator at 37° C. and 5% carbon dioxide. After 48 h, the medium was replaced. […] The suspension cells were counted and sown into a 96-well culture plate with white bottom (from Costar #3610) (#3610) (MOLM-13: 2000 cells/well; NB4: 7000 cells/well; MV-4-11: 5000 cells/well in a total volume of 100 μl). […] After 96 h, the cell proliferation was detected using the MTT assay (ATCC, Manassas, Va., USA, catalogue No. 30-1010K). […] The dye formed was detected at 570 nm (Infinite M1000 pro, Tecan). The measured data were used to calculate the IC50 of the growth inhibition using the DRC (dose response curve). […]

[1] = molecular target: T1, human kinesin spindle protein KSP/Eg5 (Homo sapiens, UniProt P52732); assay: Inhibition of the kinesin spindle protein KSP/Eg5 (ATPase activity, malachite green); format: biochemical; details: motor domain 10 nM, microtubuli, ATP 500 μM, 2 h RT
T1 construct: The motor domain of the human kinesin spindle protein KSP/Eg5; purchased tebu-bio/Cytoskeleton Inc 027EG01-XL
T1 sequence (P52732 18-359 limits assumed): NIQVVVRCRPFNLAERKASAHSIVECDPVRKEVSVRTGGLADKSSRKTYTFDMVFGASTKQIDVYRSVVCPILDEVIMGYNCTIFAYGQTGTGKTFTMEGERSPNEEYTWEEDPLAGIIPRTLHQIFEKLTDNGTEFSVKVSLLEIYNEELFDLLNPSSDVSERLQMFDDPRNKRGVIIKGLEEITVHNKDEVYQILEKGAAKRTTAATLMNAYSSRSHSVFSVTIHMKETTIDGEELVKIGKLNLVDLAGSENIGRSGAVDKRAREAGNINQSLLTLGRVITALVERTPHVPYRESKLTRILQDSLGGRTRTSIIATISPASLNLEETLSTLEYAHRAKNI
Experimental: The motor domain of the human kinesin spindle protein KSP/Eg5 (tebu-bio/Cytoskeleton Inc, No. 027EG01-XL) was incubated in a concentration of 10 nM with microtubuli (bovine or porcine, tebu-bio/Cytoskeleton Inc) stabilized with 50 μg/ml taxol (Sigma No. T7191-5MG) for 5 min at RT in 15 mM PIPES, pH 6.8 (5 mM MgCl2 and 10 mM DTT, Sigma). […] Incubation was at RT for 2 h. ATPase activity was detected by detecting the inorganic phosphate formed using malachite green (Biomol). […] The positive controls used were monastrol (Sigma, M8515-1 mg) and ispinesib (AdooQ Bioscience A10486). The individual data of the dose-activity curve are eight-fold determinations. The IC50 values are means of two independent experiments.

MV-4-11 = assay: MTT assay, cytotoxic effect on MV-4-11; format: cell-based, human; details: Table 2; metabolites; MTT after 96 h
Experimental: as §2, §3
MV-4-11: human biphenotypic B myelomonocytic leukaemia cells obtained from peripheral blood, ATCC-CRL-9591, standard medium: IMDM (ATCC: 30-2005), +10% heat inactivated FCS (Gibco, No. 10500-064); CD123-positive
as §4

Question: With CC(C)(C)[C@H](c1cc(-c2cc(F)ccc2F)cn1Cc1ccccc1)N(CC[C@H](N)C(=O)NCCNC(=O)CNC(=O)CC(SC[C@H](N)C(=O)O)C(=O)O)C(=O)CO (mixture of isomers) [Example Rm1, 4-[(2-{[2-({(2S)-2-Amino-4-[{(1R)-1-[1-benzyl-4-(2,5-difluorophenyl)-1H-pyrrol-2-yl]-2,2-dimethylpropyl}(glycoloyl)amino]butanoyl}amino)ethyl]amino}-2-oxoethyl)amino]-2-{[(2R)-2-amino-2-carboxyethyl]sulfanyl}-4-oxobutanoic Acid Trifluoroacetic Acid Salt] as the compound, how does the IC50 (NCI-H292; Homo sapiens, NCI-H292) read?
Answer: The IC50 was 63.6 nM.

Question: What about the IC50 (SKHep-1; Homo sapiens, SK-HEP1) of the same compound?
Answer: The IC50 was 19 nM.

Question: What about the “Papp (B-A)” value (Caco-2 cells) of the same compound?
Answer: Its value is 1.3 ×10⁻⁶ cm/s.

Question: How did the IC50 (NCI-H292; Homo sapiens, NCI-H292) turn out when CC(C)(C)[C@H](c1cc(-c2cc(F)ccc2F)cn1Cc1ccccc1)N(CC[C@H](N)C(=O)NCCNC(=O)CNC(=O)C(CC(=O)O)SC[C@H](N)C(=O)O)C(=O)CO (mixture of isomers) [Example Rm2, 4-[(2-{[2-({(2S)-2-Amino-4-[{(1R)-1-[1-benzyl-4-(2,5-difluorophenyl)-1H-pyrrol-2-yl]-2,2-dimethylpropyl}(glycoloyl)amino]butanoyl}amino)ethyl]amino}-2-oxoethyl)amino]-3-{[(2R)-2-amino-2-carboxyethyl]sulfanyl}-4-oxobutanoic Acid Trifluoroacetic Acid Salt] was run?
Answer: The IC50 was 276 nM.

Question: What about the IC50 (SKHep-1; Homo sapiens, SK-HEP1) of the same compound?
Answer: The IC50 was 89 nM.

Question: How did the IC50 (MOLM-13) turn out when CC(C)(C)[C@H](c1cc(-c2cc(F)ccc2F)cn1Cc1ccccc1)N(CC[C@H](N)C(=O)NCCNC(=O)[C@@H](CCC(=O)O)NC(=O)CNC(=O)CC(SC[C@H](N)C(=O)O)C(=O)O)C(=O)CO.O=C(O)C(F)(F)F (stereo partly drawn) [Example M1, N-(3-{[(2R)-2-Amino-2-carboxyethyl]sulfanyl}-3-carboxypropanoyl)glycyl-N-[2-({(25)-2-amino-4-[{(1R)-1-[1-benzyl-4-(2,5-difluorophenyl)-1H-pyrrol-2-yl]-2,2-dimethylpropyl}(glycoloyl)amino]butanoyl}amino)ethyl]-D-alpha-glutamine trifluoroacetic Acid Salt] was run?
Answer: Its IC50 is 125 nM.

Question: What about the IC50 (NCI-H292) of the same compound?
Answer: Its IC50 is 500 nM.

Question: And the IC50 (KPL-4)?
Answer: Its IC50 is 500 nM.

Question: And the IC50 [1]?
Answer: Its IC50 is 2.13 nM.

Question: What about the IC50 (MV-4-11) of the same compound?
Answer: Its IC50 is 302 nM.

Question: What about the IC50 (SKHep-1) of the same compound?
Answer: The IC50 was 98.8 nM.

Question: What about the “Papp (B-A)” value (Caco-2 cells) of the same compound?
Answer: The value was 0.12 ×10⁻⁶ cm/s.

Question: And the “Efflux ratio compared with the reference metabolites” value (Caco-2 cells; Caco-2, in words)?
Answer: The value was “reduced efflux ratio”.

Question: What about the “Transport from the cell compared with the reference metabolites” value (Caco-2 cells; Caco-2, in words) of the same compound?
Answer: The value was “reduced transport from the cell”.

Question: What about the Efflux ratio (Caco-2 cells; Caco-2, ratio of Papp (B-A) to Papp (A-B)) of the same compound?
Answer: The Efflux ratio was 0.8.
